From ChEMBL document CHEMBL4043274, “4-Hydroxy-2-pyridones: Discovery and evaluation of a novel class of antibacterial agents targeting DNA synthesis” (Bioorg Med Chem Lett, 2017)
Values after ≈ are worked out from the molar mass of the structure shown. Each block holds one molecule with its values, some of them ahead of it. Active and inactive are the calls of the source. The rule behind the calls is not given here.

How the values were obtained:
Escherichia coli [1] = assay: Antibacterial activity against wild-type Escherichia coli ATCC 25922 by CLSI M100-S17 protocol based method; assay type: functional
Escherichia coli [2] = assay: Antibacterial activity against Escherichia coli BAS849 by CLSI M100-S17 protocol based method; assay type: functional
[3] = Selectivity ratio of MIC for wild-type Escherichia coli ATCC 25922 to MIC for Escherichia coli BAS849; assay type: functional
Escherichia coli [4] = assay: Antibacterial activity against quinolone resistant Escherichia coli SKM18 by CLSI M100-S17 protocol based method; assay type: functional
Escherichia coli [5] = assay: Antibacterial activity against wild-type Escherichia coli ATCC 25922 in presence of human serum albumin by CLSI M100-S17 protocol based method; assay type: functional
Acinetobacter baumannii = assay: Antibacterial activity against Acinetobacter baumannii ATCC BAA-747 by CLSI M100-S17 protocol based method; assay type: functional
Escherichia coli [6] = assay: Ratio of MIC in presence to absence of HSA for wild-type Escherichia coli ATCC 25922; assay type: functional
Klebsiella pneumoniae = assay: Antibacterial activity against Klebsiella pneumoniae ATCC 35657 by CLSI M100-S17 protocol based method; assay type: functional
[7] = Selectivity ratio of MIC for quinolone resistant Escherichia coli SKM18 to MIC for wild-type Escherichia coli ATCC 25922; assay type: functional
[8] = Inhibition of DNA gyrase-A in Escherichia coli ATCC 25922 using relaxed pBR322 DNA as substrate after 30 mins by ethidium bromide staining based agarose gel electrophoresis method
[9] = (§1) Inhibition of Escherichia coli ATCC 25922 topoisomerase-4 ParC at 100 uM using kinetoplast DNA as substrate after 60 mins relative to control
Escherichia coli [10] = assay: Antibacterial activity against clinical isolates of Escherichia coli by broth microdilution assay; assay type: functional
Staphylococcus aureus [11] = assay: Antibacterial activity against multidrug resistant Staphylococcus aureus by broth microdilution assay; assay type: functional
Rattus norvegicus = assay: Dose normalized AUC (0 to 24 hrs) in Sprague-Dawley rat at 5 mg/kg, iv administered as single dose; assay type: ADME, organism-based; conditions: in vivo
[12] = Terminal half life in Sprague-Dawley rat at 5 mg/kg, iv administered as single dose; assay type: ADME, organism-based; conditions: in vivo, read-out: beta t1/2 (converted)
[13] = Volume of distribution at steady state in Sprague-Dawley rat at 5 mg/kg, iv administered as single dose; assay type: ADME, organism-based; conditions: in vivo, read-out: Vdss
[14] = Oral bioavailability in Sprague-Dawley rat; assay type: ADME, organism-based; conditions: in vivo
[15] = Protein binding in mouse plasma; assay type: ADME, cell-free; conditions: read-out: PPB (converted)
Escherichia coli [16] = assay: Antibacterial activity against wild-type Escherichia coli ATCC 25922 infected in iv dosed CD-1 mouse assessed as mouse survival treated for 1 hr followed by reinfection with bacteria measured at 96 hrs post infection; assay type: functional; conditions: ATCC 25922, iv, read-out: PD50
Staphylococcus aureus [17] = assay: Antibacterial activity against wild-type Staphylococcus aureus ATCC 29213 by CLSI M100-S17 protocol based method; assay type: functional
Staphylococcus aureus [18] = assay: Inhibition of DNA synthesis in wild-type Staphylococcus aureus ATCC 29213 at MIC; assay type: functional
[19] = system: Escherichia coli ATCC 25922; assay: as §1
Staphylococcus aureus [20] = assay: Inhibition of protein synthesis in wild-type Staphylococcus aureus ATCC 29213 at 1.6 ug/ml; assay type: functional

Compound: CC(C)c1c(-c2ccc(N(C)C)cc2)[nH]c(=O)c(C(=O)O)c1O
MIC (Escherichia coli [1]): 12.5 µg/mL (≈ 39.5 µM) | MIC (Escherichia coli [4]): > 62.5 µg/mL | MIC (Escherichia coli [2]): 0.12 µg/mL (≈ 0.379 µM)

Compound: CCc1c(-c2ccc(N3C[C@@H]4[C@H](C3)[C@H]4N(C)C)cc2)[nH]c(=O)c(C(=O)O)c1O
MIC (Escherichia coli [1]): 6.3 µg/mL (≈ 16.4 µM) | MIC (Escherichia coli [4]): 12.5 µg/mL (≈ 32.6 µM) | MIC (Escherichia coli [2]): 0.25 µg/mL (≈ 0.652 µM) | MIC (Escherichia coli [5]): > 12.5 µg/mL | MIC (Acinetobacter baumannii): > 12.5 µg/mL | Ratio (Escherichia coli [6]): 4 - 8

Compound: CCc1c(-c2ccc(N3CCC(C(C)(C)N)C3)cc2)[nH]c(=O)c(C(=O)O)c1O (stereo not given)
MIC (Escherichia coli [1]): 3.1 µg/mL (≈ 8.04 µM) | MIC (Escherichia coli [4]): 0.78 µg/mL (≈ 2.02 µM) | MIC (Escherichia coli [2]): 0.78 µg/mL (≈ 2.02 µM) | MIC (Escherichia coli [5]): 12.5 µg/mL | MIC (Acinetobacter baumannii): > 12.5 µg/mL | MIC (Klebsiella pneumoniae): 6.3 µg/mL (≈ 16.3 µM) | Ratio (Escherichia coli [6]): 4 - 8

Compound: CCc1c(-c2ccc(N3CCC(N(C)C)C3)cc2)[nH]c(=O)c(C(=O)O)c1O (stereo not given)
MIC (Escherichia coli [1]): 0.78 µg/mL (≈ 2.1 µM) | MIC (Escherichia coli [4]): 3.1 µg/mL (≈ 8.35 µM) | MIC (Escherichia coli [2]): 0.19 µg/mL (≈ 0.512 µM) | MIC (Escherichia coli [5]): 3.1 µg/mL | MIC (Acinetobacter baumannii): 1.6 µg/mL (≈ 4.31 µM) | MIC (Klebsiella pneumoniae): 1.6 µg/mL (≈ 4.31 µM) | Ratio (Escherichia coli [6]): <4 | Selectivity ratio [7]: < 4

Compound: CCc1c(-c2ccc(N3C[C@@H]4[C@@H](N)[C@@H]4C3)cc2)[nH]c(=O)c(C(=O)O)c1O
MIC (Escherichia coli [1]): 0.19 µg/mL (≈ 0.535 µM) | MIC (Escherichia coli [4]): 12.5 µg/mL (≈ 35.2 µM) | IC50 [8]: 770 nM | IC50 [9]: 2400 nM | MIC (Escherichia coli [2]): 0.049 µg/mL (≈ 0.138 µM) | MIC (Escherichia coli [5]): 0.78 µg/mL | MIC (Acinetobacter baumannii): 0.78 µg/mL (≈ 2.19 µM) | MIC (Klebsiella pneumoniae): 0.39 µg/mL (≈ 1.1 µM) | MIC50 (Escherichia coli [10]): 0.25 µg/mL (≈ 0.703 µM) | MIC90 (Escherichia coli [10]): 8 µg/mL (≈ 22.5 µM) | MIC (Staphylococcus aureus [11]): 0.5 to 8 µg/mL (≈ 1.41 to 22.5 µM) | MIC50 (Staphylococcus aureus [11]): 1 µg/mL (≈ 2.81 µM) | MIC90 (Staphylococcus aureus [11]): 8 µg/mL (≈ 22.5 µM) | AUC/dose (Rattus norvegicus): 30.7 µg·h/mL | half-life [12]: 2.9 h | Vd [13]: 0.54 L/kg | bioavailability [14]: 17% | fraction unbound [15]: 0.12 | ED50 (Escherichia coli [16]): 8 mg/kg

Compound: CCc1c(-c2ccc(N3CC(N)C4(CC4)C3)cc2)[nH]c(=O)c(C(=O)O)c1O (stereo not given)
MIC (Escherichia coli [1]): 3.1 µg/mL (≈ 8.39 µM) | MIC (Escherichia coli [4]): 6.3 µg/mL (≈ 17.1 µM) | MIC (Escherichia coli [2]): 0.78 µg/mL (≈ 2.11 µM)

Compound: CCc1c(-c2ccc(N(C)C)cc2)[nH]c(=O)c(C(=O)O)c1O
MIC (Staphylococcus aureus [17]): 3.1 µg/mL (≈ 10.3 µM) | MIC (Escherichia coli [1]): 0.78 to 0.8 µg/mL (≈ 2.58 to 2.65 µM) | MIC (Escherichia coli [4]): 15.6 µg/mL (≈ 51.6 µM) | inhibition (Staphylococcus aureus [18]): Active | IC50 [8]: 11000 nM | inhibition [19]: 30% | MIC (Escherichia coli [2]): 0.03 µg/mL (≈ 0.0992 µM) | MIC (Escherichia coli [5]): > 25 µg/mL | MIC (Acinetobacter baumannii): 6.3 µg/mL (≈ 20.8 µM) | MIC (Klebsiella pneumoniae): 3.9 µg/mL (≈ 12.9 µM)

Compound: CCc1c(O)c(C(=O)O)c(=O)n(Cc2ccccc2)c1-c1ccc(N(C)C)cc1
MIC (Staphylococcus aureus [17]): 1.6 µg/mL (≈ 4.08 µM) | MIC (Escherichia coli [1]): > 12.5 µg/mL | inhibition (Staphylococcus aureus [20]): Active | inhibition (Staphylococcus aureus [18]): Active

Compound: CCc1c(-c2ccc(N3CCCCC3)cc2)[nH]c(=O)c(C(=O)O)c1O
MIC (Escherichia coli [1]): > 62.5 µg/mL | MIC (Escherichia coli [2]): 0.39 µg/mL (≈ 1.14 µM) | Selectivity ratio [3]: > 50 | Ratio (Escherichia coli [6]): >30

Compound: O=C(O)c1cn(C2CC2)c2cc(N3CCNCC3)c(F)cc2c1=O [CIPROFLOXACIN]
MIC (Staphylococcus aureus [11]): 0.125 to 64 µg/mL (≈ 0.377 to 193 µM) | MIC50 (Staphylococcus aureus [11]): 64 µg/mL (≈ 193 µM) | MIC90 (Staphylococcus aureus [11]): > 64 µg/mL

Compound: CCc1c(-c2ccc(N3CCC(CNC)C3)cc2)[nH]c(=O)c(C(=O)O)c1O (stereo not given)
MIC (Escherichia coli [1]): 1.6 µg/mL (≈ 4.31 µM) | MIC (Escherichia coli [4]): 7.8 µg/mL (≈ 21 µM) | MIC (Escherichia coli [2]): 0.39 µg/mL (≈ 1.05 µM) | MIC (Escherichia coli [5]): 6.3 µg/mL | MIC (Acinetobacter baumannii): 12.5 µg/mL (≈ 33.7 µM) | MIC (Klebsiella pneumoniae): 6.3 µg/mL (≈ 17 µM) | Ratio (Escherichia coli [6]): 4 - 8

The next lines start with results.

MIC (Escherichia coli [1]): > 62.5 µg/mL | MIC (Escherichia coli [2]): 0.24 µg/mL (≈ 0.726 µM)
Compound: CCc1c(-c2ccc(N(CC)CC)cc2)[nH]c(=O)c(C(=O)O)c1O
Selectivity ratio [3]: > 50

MIC (Escherichia coli [1]): > 62.5 µg/mL | MIC (Escherichia coli [2]): 1.56 µg/mL (≈ 4.96 µM)
Compound: CN(C)c1ccc(-c2[nH]c(=O)c(C(=O)O)c(O)c2C2CC2)cc1

MIC (Escherichia coli [1]): 7.8 µg/mL (≈ 27 µM) | MIC (Escherichia coli [2]): ≤ 0.2 µg/mL
Compound: CCc1c(-c2ccc(OC)cc2)[nH]c(=O)c(C(=O)O)c1O

MIC (Escherichia coli [1]): > 12.5 µg/mL | MIC (Escherichia coli [2]): 6.3 µg/mL (≈ 19 µM)
Compound: CCc1c(-c2ccc(N(C)C)cc2OC)[nH]c(=O)c(C(=O)O)c1O

MIC (Escherichia coli [1]): > 12.5 µg/mL | MIC (Escherichia coli [2]): 1.6 µg/mL (≈ 5.06 µM)
Compound: CCc1c(-c2ccc(N(C)C)c(C)c2)[nH]c(=O)c(C(=O)O)c1O

MIC (Escherichia coli [1]): > 12.5 µg/mL | MIC (Escherichia coli [2]): 6.3 µg/mL (≈ 19 µM)
Compound: CCc1c(-c2ccc(N(C)C)c(OC)c2)[nH]c(=O)c(C(=O)O)c1O

MIC (Escherichia coli [1]): > 12.5 µg/mL | MIC (Escherichia coli [2]): ≤ 0.2 µg/mL
Compound: CCc1c(-c2ccc(N(C)C)cc2F)[nH]c(=O)c(C(=O)O)c1O

MIC (Escherichia coli [1]): > 12.5 µg/mL | MIC (Escherichia coli [2]): 6.3 µg/mL (≈ 19.9 µM)
Compound: CCc1c(-c2ccc(N(C)C)cc2C)[nH]c(=O)c(C(=O)O)c1O

MIC (Escherichia coli [1]): > 12.5 µg/mL | MIC (Escherichia coli [2]): 1.6 µg/mL (≈ 5.45 µM)
Compound: CCc1c(-c2ccc(Cl)cc2)[nH]c(=O)c(C(=O)O)c1O

MIC (Escherichia coli [1]): > 12.5 µg/mL | MIC (Escherichia coli [2]): > 12.5 µg/mL
Compound: CCOC(=O)c1c(O)c(CC)c(-c2ccc(N(C)C)cc2)[nH]c1=O
